Experimental findings from US4547369A, “Antiviral agent” (Cabinet Harle & Phelip, priority 1973, dated 1985) are described below.

This experiment has as its system EMC virus, strain VR 125. Put plainly: HPA 23 and murine interferon in EMC infected mice. The settings on record: no HPA 23. In kind it is in vivo. The source says:
Synergism occurs between HPA 23 and murine interferon to combat viral infections in mice.
*Number of survival mice on inoculated mice
**range of death for dead mice

Where [1] appears, read: Interferon 1:3 25.000 I.U./mouse i.p.
[2] abbreviates: Interferon 1:9 8.000 I.U./mouse i.p.
Where [3] appears, read: Interferon undiluted 75.000 I.U./mouse i.p.
[4] abbreviates: Interferon undiluted 75.000 I.U./mouse i.v.

With Interferon, the “Number of survival mice on inoculated mice” value runs as follows: under setting [1], 3/10; under setting [2], 1/10; under setting [3], 5/10; under setting [4], 6/10. For the same substance, the “range of death for dead mice” value under setting [1] is 5.5 ± 3.0 days, the “range of death for dead mice” value under setting [2] was 4.4 ± 2.1 days, the “range of death for dead mice” value under setting [3] is 7.1 ± 3.1 days and the “range of death for dead mice” value under setting [4] is recorded as 7.7 ± 2.9 days.
